“And” between values parts separate entries of the source, which are not always exact repeats. Equal values may be shown once.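 Results reflect a 48-hour exposure of cells in 96-well plates to compound at five concentrations. At the GI50, growth is halved. TGI denotes the concentration required for complete inhibition of growth.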
Columns and labels:
Experiment in all cases: inhibition of tumour cell growth, NCI panel, 48 h
COLO 205 colon = test system: COLO 205 colon
IGROV1 ovarian = test system: IGROV1 ovarian
HOP-62 NSCLC = test system: HOP-62 NSCLC
SF-268 CNS = test system: SF-268 CNS
CCRF-CEM leukemia = test system: CCRF-CEM leukemia
NCI-H522 lung = test system: NCI-H522 lung
SK-MEL-2 melanoma = test system: SK-MEL-2 melanoma
A549 NSCLC = test system: A549 NSCLC
786-0 renal = test system: 786-0 renal
SNB-75 CNS = test system: SNB-75 CNS

SMILES	GI50 (COLO 205 colon)	TGI (COLO 205 colon)	GI50 (IGROV1 ovarian)	TGI (IGROV1 ovarian)	GI50 (HOP-62 NSCLC)	TGI (HOP-62 NSCLC)	GI50 (SF-268 CNS)	TGI (SF-268 CNS)	GI50 (CCRF-CEM leukemia)	TGI (CCRF-CEM leukemia)	GI50 (NCI-H522 lung)	TGI (NCI-H522 lung)	GI50 (SK-MEL-2 melanoma)	TGI (SK-MEL-2 melanoma)	GI50 (A549 NSCLC)	TGI (A549 NSCLC)	GI50 (786-0 renal)	TGI (786-0 renal)	GI50 (SNB-75 CNS)	TGI (SNB-75 CNS)
CC(=O)c1cccc(-c2cccc(-c3ccn(CCN4CCOCC4)n3)c2)c1	> 20 µM	> 20 µM	> 20 µM	> 20 µM	> 20 µM	> 20 µM	> 20 µM	> 20 µM	> 20 µM	> 20 µM	> 20 µM	> 20 µM	> 20 µM	> 20 µM	> 20 µM	> 20 µM	> 20 µM	> 20 µM	> 20 µM	> 20 µM
CCCCCCCCCCCCCC(=O)NCC(OCC)OCC	–	> 100 µM	–	> 100 µM	–	> 100 µM	–	> 100 µM	–	> 100 µM	–	> 100 µM	–	> 100 µM	–	> 100 µM	–	> 100 µM	–	> 100 µM
C[C@]12CC[C@H]3[C@@H](CC[C@]4(O)C[C@@H](O)CC[C@]34CO)[C@@]1(O)CC[C@@H]2C1=CC(=O)OC1	–	29.7 µM	–	> 100 µM	–	3.89 µM	–	3.25 µM	–	> 36.7 µM	–	4.94 µM	–	8.23 µM	–	1.74 µM	–	11.7 µM	–	34.3 µM
Oc1c(Cl)cc(Cl)cc1Sc1cc(Cl)cc(Cl)c1O	2.22 µM and 1.67 µM	5.23 µM and 3.03 µM	6.03 µM and 2.97 µM	26.2 µM and 15 µM	3.37 µM and 2.17 µM	14.9 µM and 5.66 µM	4.4 µM and 3.44 µM	17.3 µM and 14 µM	4.32 µM and 2.83 µM	23.4 µM and 25 µM	2.49 µM	7.03 µM	2.62 µM and 1.07 µM	5.4 µM and 2.91 µM	3.37 µM and 3.03 µM	11.9 µM and 10.6 µM	3.22 µM and 2.83 µM	10.4 µM and 7.85 µM	3.47 µM and 2.57 µM	14 µM and 7.61 µM
Nc1cc2[nH]cnc2c(=O)[nH]1	–	228 µM	–	> 300 µM	–	> 191 µM	–	> 300 µM	–	> 300 µM	–	> 215 µM	–	125 µM	–	> 300 µM	–	> 300 µM	–	> 300 µM
C[C@]12CC[C@@H](OC(=O)N(CCCl)N=O)C[C@@H]1CC[C@@H]1[C@@H]2CC[C@]2(C)C(=O)CC[C@@H]12	1.6 µM	3.88 µM	3.75 µM	24 µM	5.48 µM	27 µM	0.632 µM	18.9 µM	14.2 µM	> 100 µM	9.06 µM	30.8 µM	17.1 µM	38 µM	0.73 µM	4.69 µM	0.891 µM	16.7 µM	2.74 µM	30.5 µM
O=C(O)c1cccc(/C=C/c2ccccc2)c1	–	> 100 µM	–	> 100 µM	–	> 100 µM	–	> 100 µM	–	> 100 µM	–	> 100 µM	–	> 100 µM	–	> 100 µM	–	> 100 µM	–	> 100 µM
CC[C@]1(O)C[C@@H]2CN(CCc3c([nH]c4ccccc34)[C@@](C(=O)OC)(c3cc4c(cc3OC)N(C)[C@H]3[C@@](O)(C(N)=O)[C@H](O)[C@]5(CC)[C@@H]6C[C@@H]6CN6CC[C@]43[C@@H]65)C2)C1	< 0.00333 µM	0.00878 µM	0.0172 µM	> 33.3 µM	0.00694 µM	> 33.3 µM	0.00352 µM	> 33.3 µM	< 0.00333 µM	> 28.8 µM	< 0.00333 µM	< 0.00333 µM	< 0.00333 µM	–	0.0128 µM	> 33.3 µM	0.0247 µM	> 19.3 µM	< 0.00333 µM	20.6 µM
N=c1ccc2nc3c(cc(N)c4ccccc43)oc-2c1	0.237 µM	0.892 µM	0.18 µM	0.643 µM	0.267 µM	0.798 µM	0.431 µM	1.75 µM	0.546 µM	3.28 µM	0.19 µM	0.501 µM	0.407 µM	1.61 µM	0.295 µM	1.05 µM	1.07 µM	2.3 µM	0.191 µM	0.654 µM
COC(=O)C1Cc2c([nH]c3ccccc23)C(c2ccccc2O)N1Cc1ccccc1 (configuration not stated)	–	> 46.4 µM	–	33.3 µM	–	> 63.5 µM	–	> 31.6 µM	–	> 46.4 µM	–	> 31.6 µM	–	> 31.6 µM	–	> 46.4 µM	–	31.2 µM	–	18.8 µM
CNCCNc1nc2ccccc2c2c(=O)c3cc(OC)ccc3sc12	1.64 µM	3.34 µM	1.55 µM	3.04 µM	1.49 µM	3.22 µM	1.64 µM	3.39 µM	1.76 µM	3.46 µM	1.73 µM	3.56 µM	1.94 µM	3.83 µM	1.71 µM	3.41 µM	1.7 µM	3.18 µM	1.28 µM	2.58 µM
COC(=O)[C@H]1N[C@@H](C(=O)OC)C23CCC[C@H]2CC[C@]1(C(OC)OC)C3	–	> 100 µM	–	> 100 µM	–	> 100 µM	–	> 100 µM	–	> 100 µM	–	> 100 µM	–	> 100 µM	–	> 100 µM	–	> 100 µM	–	> 100 µM
O=C(N/N=C/c1ccc(Cl)cc1)c1[nH]c2ccc(Cl)cc2c1-c1ccccc1	0.202 µM	0.406 µM	0.0523 µM	12.1 µM	0.494 µM	36.4 µM	0.161 µM	> 42.3 µM	0.0986 µM	–	0.0458 µM	0.167 µM	0.332 µM	35.5 µM	0.348 µM	29.3 µM	0.294 µM	> 34.7 µM	1.02 µM	> 51.2 µM
COc1ccccc1NC(=O)C1=C(C)NC(C)=C(C(=O)Nc2ccccc2OC)C1c1ccc(N(C)C)cc1	–	92.1 µM	–	> 100 µM	–	57.2 µM	–	> 100 µM	–	52.4 µM	–	53.7 µM	–	48.2 µM	–	> 100 µM	–	> 100 µM	–	80.6 µM
COc1cc2ncnc3c2cc1OCCCCCN(C)Cc1ccc(Br)cc1N3	5.68 µM and 4.67 µM	> 100 µM	0.35 µM and 0.31 µM	10.6 µM and 4.31 µM	21.7 µM and 8.36 µM	> 100 µM	29.5 µM and 4.01 µM	> 100 µM	10.2 µM and > 10 µM	> 100 µM	0.851 µM and 0.225 µM	–	6.37 µM and 2.2 µM	> 100 µM	6.23 µM and 1.9 µM	> 100 µM	37.4 µM and 5.07 µM	> 100 µM	6.14 µM and 2.91 µM	64 µM and > 10 µM
COC(=O)[C@]1(C)CCC[C@@]2(C)[C@@H]3C[C@@H]4[C@H]5C[C@@]3(CC[C@@H]21)C[C@@]45C	–	45.8 µM	–	36 µM	–	32.2 µM	–	31.8 µM	–	45.7 µM	–	32.9 µM	–	30.9 µM	–	28 µM	–	29.6 µM	–	31.5 µM
Cc1nn(CNc2ccccc2C(F)(F)F)c(=S)n1/N=C/c1ccc(F)cc1	53.2 µM	> 100 µM	> 100 µM	> 100 µM	> 100 µM	> 100 µM	> 100 µM	> 100 µM	14.2 µM	> 100 µM	> 100 µM	> 100 µM	> 100 µM	> 100 µM	> 100 µM	> 100 µM	> 100 µM	> 100 µM	29.5 µM	91.3 µM
COc1ccc([C@@H](O)c2cc(-c3ncnc4cc(N5CCOCC5)ccc34)c(F)cc2Cl)nn1	2.85 µM	16.5 µM	0.469 µM	4.99 µM	12.5 µM	> 100 µM	5.99 µM	> 100 µM	3.5 µM	26.7 µM	3.31 µM	22.3 µM	7.37 µM	25.3 µM	2.77 µM	21 µM	1.1 µM	25.3 µM	0.371 µM	11.4 µM
COc1cc(/C=C2\CN(C(=O)CCN3CCC(=NO)CC3)C/C(=C\c3cc(OC)c(OC)c(OC)c3)C2=O)cc(OC)c1OC	0.419 µM	1.27 µM	0.275 µM	0.793 µM	0.719 µM	2.39 µM	0.535 µM	1.95 µM	0.266 µM	1.6 µM	0.323 µM	1.34 µM	1.25 µM	4.14 µM	1.15 µM	5.82 µM	0.355 µM	1.14 µM	0.425 µM	2 µM
